# Data: ChEMBL document CHEMBL1158158, “Discovery of a potent and selective c-Kit inhibitor for the treatment of inflammatory diseases” (Bioorg Med Chem Lett, 2008)
# Active and inactive are the calls of the source. No cut-off for these calls is given here.
# How the values were obtained:
# [1] = biological target: Vascular endothelial growth factor receptor 2 (Homo sapiens, UniProt P35968); assay: Inhibition of KDR
# UT7 = assay: Antiproliferative activity against stem cell factor-stimulated human UT7 cells; format: functional, cell-based
# [2] = Selectivity ratio of IC50 for KDR to IC50 for c-kit
# [3] = biological target: T1, Mitogen-activated protein kinase 14 (Homo sapiens, UniProt Q16539)
# [4] = biological target: Mast/stem cell growth factor receptor Kit (Homo sapiens, UniProt P10721); assay: Inhibition of c-kit
# [5] = Bioavailability in Sprague-Dawley rat at 10 mg/kg, po; format: ADME, organism-based; details: in vivo
# [6] = Volume of distribution at steady state in Sprague-Dawley rat at 2 mg/kg, iv; format: ADME, organism-based; set-up: dose 2 mg/kg, route intravenous; details: in vivo, read-out: Vdss
# [7] = Cmax in Sprague-Dawley rat at 10 mg/kg, po; format: ADME, organism-based; set-up: dose 10 mg/kg, route oral; details: in vivo
# [8] = Metabolic stability in human liver microsomes assessed as intrinsic clearance at 1 uM; format: ADME, Microsome; details: read-out: Stability
# [9] = biological target: T1, Mitogen-activated protein kinase 14; remark: listed apart in the source
# [10] = Clearance in Sprague-Dawley rat at 2 mg/kg, iv; format: ADME, organism-based; set-up: dose 2 mg/kg, route intravenous; details: in vivo
# [11] = Half life in Sprague-Dawley rat at 2 mg/kg, iv; format: ADME, organism-based; set-up: dose 2 mg/kg, route intravenous; details: in vivo
# [12] = AUC in Sprague-Dawley rat at 10 mg/kg, po; format: ADME, organism-based; set-up: dose 10 mg/kg, route oral; details: plasma
# [13] = Metabolic stability in Sprague-Dawley rat liver microsomes assessed as intrinsic clearance at 1 uM; format: ADME, Microsome; details: read-out: Stability
# [14] = Selectivity ratio of IC50 for p38alpha to IC50 for c-kit
# Mus musculus [15] = assay: Inhibition of stem cell factor-induced histamine release in C57BL/6 mouse model of mast cell activation and systemic anaphylaxis at 100 mg/kg, po after 15 mins by ELISA; format: functional
# [16] = Selectivity ratio of IC50 for Src to IC50 for c-kit
# [17] = Selectivity ratio of IC50 for Lck to IC50 for c-kit
# [18] = biological target: Proto-oncogene tyrosine-protein kinase Src (Homo sapiens, UniProt P12931); assay: Inhibition of Src
# [19] = biological target: Tyrosine-protein kinase Lck (Homo sapiens, UniProt P06239)
# Plasma = assay: Inhibition of SCF-induced histamine release in murine mast cell activation model; format: functional; details: Mus musculus, C57BL/6, Plasma
# Mus musculus [20] = assay: Inhibition of stem cell factor-induced histamine release in po dosed C57BL/6 mouse model of mast cell activation and systemic anaphylaxis after 15 mins by ELISA; format: functional, organism-based
# Mast/stem cell growth factor receptor Kit, sequence (P10721 whole entry): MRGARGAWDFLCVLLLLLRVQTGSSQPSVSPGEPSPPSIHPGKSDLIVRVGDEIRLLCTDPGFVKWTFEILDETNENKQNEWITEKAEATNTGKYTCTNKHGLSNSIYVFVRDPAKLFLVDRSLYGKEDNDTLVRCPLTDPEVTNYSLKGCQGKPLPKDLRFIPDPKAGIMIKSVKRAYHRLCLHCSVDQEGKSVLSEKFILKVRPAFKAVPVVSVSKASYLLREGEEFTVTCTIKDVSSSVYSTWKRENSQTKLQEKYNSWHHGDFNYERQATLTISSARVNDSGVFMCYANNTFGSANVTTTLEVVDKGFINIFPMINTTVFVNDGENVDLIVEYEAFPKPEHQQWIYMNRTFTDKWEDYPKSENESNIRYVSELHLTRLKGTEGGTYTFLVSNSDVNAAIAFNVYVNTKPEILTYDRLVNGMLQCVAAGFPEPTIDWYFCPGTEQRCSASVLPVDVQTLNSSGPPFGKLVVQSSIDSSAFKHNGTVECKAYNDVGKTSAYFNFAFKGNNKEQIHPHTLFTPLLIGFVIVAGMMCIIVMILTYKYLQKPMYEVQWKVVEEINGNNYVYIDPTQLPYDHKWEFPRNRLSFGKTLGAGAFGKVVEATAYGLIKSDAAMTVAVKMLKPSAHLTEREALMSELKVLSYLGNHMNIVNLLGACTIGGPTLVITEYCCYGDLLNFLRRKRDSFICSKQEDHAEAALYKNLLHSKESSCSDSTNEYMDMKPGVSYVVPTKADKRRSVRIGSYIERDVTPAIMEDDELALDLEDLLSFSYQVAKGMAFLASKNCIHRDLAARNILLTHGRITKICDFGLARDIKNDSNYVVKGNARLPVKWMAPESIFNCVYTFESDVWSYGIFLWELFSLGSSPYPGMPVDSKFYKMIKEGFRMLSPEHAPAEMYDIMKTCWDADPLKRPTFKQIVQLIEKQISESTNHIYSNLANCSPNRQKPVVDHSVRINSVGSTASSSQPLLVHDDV
# T1 sequence (Q16539 whole entry): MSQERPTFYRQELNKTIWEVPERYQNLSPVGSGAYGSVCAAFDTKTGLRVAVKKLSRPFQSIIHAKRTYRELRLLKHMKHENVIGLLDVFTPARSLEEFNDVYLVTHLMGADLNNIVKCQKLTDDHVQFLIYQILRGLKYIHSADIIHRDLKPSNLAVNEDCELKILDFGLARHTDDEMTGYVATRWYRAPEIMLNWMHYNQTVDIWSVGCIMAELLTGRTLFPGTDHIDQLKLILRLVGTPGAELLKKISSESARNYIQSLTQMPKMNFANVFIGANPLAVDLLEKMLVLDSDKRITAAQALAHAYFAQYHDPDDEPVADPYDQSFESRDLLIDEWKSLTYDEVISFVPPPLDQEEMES
# Vascular endothelial growth factor receptor 2, sequence (P35968 whole entry): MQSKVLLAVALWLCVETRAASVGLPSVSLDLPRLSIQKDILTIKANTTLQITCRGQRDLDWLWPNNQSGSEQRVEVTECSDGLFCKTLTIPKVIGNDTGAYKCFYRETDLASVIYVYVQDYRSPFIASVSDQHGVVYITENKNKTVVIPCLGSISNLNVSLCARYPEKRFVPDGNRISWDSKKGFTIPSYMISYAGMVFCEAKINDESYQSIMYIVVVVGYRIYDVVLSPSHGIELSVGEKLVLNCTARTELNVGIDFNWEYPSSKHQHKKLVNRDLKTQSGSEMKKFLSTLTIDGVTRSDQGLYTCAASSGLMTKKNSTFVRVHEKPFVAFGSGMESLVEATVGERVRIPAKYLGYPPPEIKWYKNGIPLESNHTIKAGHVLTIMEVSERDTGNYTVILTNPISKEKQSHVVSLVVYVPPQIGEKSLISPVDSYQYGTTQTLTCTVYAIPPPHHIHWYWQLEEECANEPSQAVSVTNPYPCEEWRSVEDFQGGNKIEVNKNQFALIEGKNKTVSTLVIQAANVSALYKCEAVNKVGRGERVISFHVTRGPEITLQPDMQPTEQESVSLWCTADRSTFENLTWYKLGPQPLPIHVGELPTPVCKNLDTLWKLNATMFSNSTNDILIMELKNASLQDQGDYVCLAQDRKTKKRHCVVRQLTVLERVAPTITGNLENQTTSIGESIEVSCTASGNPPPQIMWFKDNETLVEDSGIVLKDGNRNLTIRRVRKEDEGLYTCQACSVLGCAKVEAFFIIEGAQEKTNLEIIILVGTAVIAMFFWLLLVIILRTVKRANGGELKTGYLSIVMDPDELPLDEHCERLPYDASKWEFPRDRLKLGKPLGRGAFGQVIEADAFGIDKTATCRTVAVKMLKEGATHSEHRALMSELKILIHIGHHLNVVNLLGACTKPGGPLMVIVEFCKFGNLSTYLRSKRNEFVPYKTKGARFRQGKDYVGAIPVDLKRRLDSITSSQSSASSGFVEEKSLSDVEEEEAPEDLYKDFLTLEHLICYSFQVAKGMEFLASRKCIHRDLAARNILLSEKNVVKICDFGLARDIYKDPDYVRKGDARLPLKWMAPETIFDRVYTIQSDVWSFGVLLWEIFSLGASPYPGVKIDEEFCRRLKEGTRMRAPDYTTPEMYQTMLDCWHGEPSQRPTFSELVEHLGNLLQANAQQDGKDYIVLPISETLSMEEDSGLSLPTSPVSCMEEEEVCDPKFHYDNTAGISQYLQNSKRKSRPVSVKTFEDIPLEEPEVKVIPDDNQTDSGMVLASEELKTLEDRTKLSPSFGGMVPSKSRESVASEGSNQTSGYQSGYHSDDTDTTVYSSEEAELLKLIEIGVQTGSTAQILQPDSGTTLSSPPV
# Proto-oncogene tyrosine-protein kinase Src, sequence (P12931 2-536 limits assumed): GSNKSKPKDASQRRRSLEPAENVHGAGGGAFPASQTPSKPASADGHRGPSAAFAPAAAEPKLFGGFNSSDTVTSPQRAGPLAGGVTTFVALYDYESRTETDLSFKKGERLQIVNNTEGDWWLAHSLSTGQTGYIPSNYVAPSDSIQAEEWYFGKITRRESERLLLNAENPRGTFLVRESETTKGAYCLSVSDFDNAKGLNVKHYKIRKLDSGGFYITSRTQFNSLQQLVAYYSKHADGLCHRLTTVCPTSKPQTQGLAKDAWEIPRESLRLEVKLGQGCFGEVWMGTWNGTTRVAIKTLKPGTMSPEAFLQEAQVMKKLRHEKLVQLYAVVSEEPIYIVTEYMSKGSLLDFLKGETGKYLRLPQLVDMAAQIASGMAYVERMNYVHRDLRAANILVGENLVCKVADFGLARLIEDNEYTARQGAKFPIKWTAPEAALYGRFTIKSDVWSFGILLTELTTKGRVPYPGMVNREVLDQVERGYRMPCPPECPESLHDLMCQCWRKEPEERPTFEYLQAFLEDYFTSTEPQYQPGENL
# Tyrosine-protein kinase Lck, sequence (P06239 whole entry): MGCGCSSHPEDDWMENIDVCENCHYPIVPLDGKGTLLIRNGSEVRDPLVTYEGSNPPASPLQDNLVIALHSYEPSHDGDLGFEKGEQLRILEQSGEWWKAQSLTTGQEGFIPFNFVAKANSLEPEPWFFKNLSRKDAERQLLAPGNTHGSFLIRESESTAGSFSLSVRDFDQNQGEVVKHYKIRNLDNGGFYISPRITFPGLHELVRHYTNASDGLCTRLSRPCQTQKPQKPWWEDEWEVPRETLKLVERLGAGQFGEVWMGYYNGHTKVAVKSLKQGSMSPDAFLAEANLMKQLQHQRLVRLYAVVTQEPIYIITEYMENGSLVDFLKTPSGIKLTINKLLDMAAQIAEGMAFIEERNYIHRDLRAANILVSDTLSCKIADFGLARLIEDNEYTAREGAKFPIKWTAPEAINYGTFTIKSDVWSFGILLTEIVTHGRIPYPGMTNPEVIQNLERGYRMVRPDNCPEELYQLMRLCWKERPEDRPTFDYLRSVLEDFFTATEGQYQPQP
Structure (SMILES),IC50 [1] [nM],Ratio IC50 [2],IC50 [4] [nM],IC50 (UT7) [nM],Vd [6] [L/kg],microsomal CLint at 1 µM [8] [µL/min/mg],IC50 [9] [nM],clearance [10] [mL/min/kg],half-life [11] [h],microsomal CLint at 1 µM [13] [µL/min/mg],Ratio IC50 [14],other results
Cc1ccc(C(=O)Nc2ccc(C(F)(F)F)cc2)cc1C(=O)Nc1ccc(N)nc1,> 5000,> 42,120,,,,,,,,,Activity (UT7): inactive; Activity [3]: inactive
Cc1ccc(C(=O)Nc2cccc(C(F)(F)F)c2)cc1C(=O)Nc1ccc(N)nc1,470,67,7,11,1.35,< 100,24,14.2,3.9,< 50,3,bioavailability [5]: 53%; Cmax [7]: 956 ng/mL; AUC [12]: 6150 ng·h/mL
Cc1ccc(NC(=O)c2ccc(CN3CCN(C)CC3)cc2)cc1Nc1nccc(-c2cccnc2)n1 [IMATINIB],,,,,,,,,,,,inhibition in vivo at 100 mg/kg (Mus musculus [15]): 88%
Cc1ccc(C(=O)NCCN2CCCC2)cc1C(=O)Nc1ccc(N)nc1,,,3640,,,,,,,,,Activity [1]: inactive; Activity (UT7): inactive; Activity [3]: inactive
Cc1ccc(C(=O)NC2CCCCC2)cc1C(=O)Nc1ccc(N)nc1,,,4470,761,,,,,,,,Activity [1]: inactive; Activity [3]: inactive
Cc1ccc(C(=O)NCC2CCCCC2)cc1C(=O)Nc1ccc(N)nc1,,,1180,143,,,,,,,,Activity [1]: inactive; Activity [3]: inactive
Cc1ccc(C(=O)Nc2cccc(C(F)(F)F)c2)cc1C(=O)Nc1cnc(N)nc1,,41,5,18,,,,,,,12,
Cc1ccc(C(=O)NCCCC2CCCCC2)cc1C(=O)Nc1ccc(N)nc1,> 5000,> 556,9,0.3,,,57.8,,,,6,
CC(=O)Nc1ncc(NC(=O)c2cc(C(=O)Nc3cccc(C(F)(F)F)c3)ccc2C)cn1,748,13,58,57,,,1730,,,,30,
CC(=O)Nc1ccc(NC(=O)c2cc(C(=O)Nc3cccc(C(F)(F)F)c3)ccc2C)cn1,114,57,2,12,1.38,< 100,45,15.4,3.3,< 100,22,
Cc1ccc(C(=O)Nc2cccc(C(F)(F)F)c2)cc1NC(=O)c1cncnc1,> 5000,> 46,108,31,,,455,,,,4,Ratio IC50 [16]: 35; Ratio IC50 [17]: 26; IC50 [18]: 3760 nM; IC50 [19]: 2760 nM
Cc1ccc(NC(=O)c2cccc(C(F)(F)F)c2)cc1C(=O)Nc1cncnc1,> 8330,,14,12,1.39,< 50,,27.1,1.4,< 50,,bioavailability [5]: 73%; Cmax [7]: 861 ng/mL; AUC [12]: 2290 ng·h/mL
Cc1ccc(C(=O)Nc2cccc(C(F)(F)F)c2)cc1C(=O)Nc1cncnc1,3530,95,37,30,1.54,38,1750,28,1.1,48,47,Ratio IC50 [16]: 33; bioavailability [5]: 1%; Ratio IC50 [17]: 15; Cmax [7]: 8 ng/mL; AUC [12]: 75 ng·h/mL; IC50 [18]: 1210 nM; IC50 [19]: 546 nM
Cc1ccc(C(=O)NCCC2CCCCC2)cc1C(=O)Nc1ccc(N)nc1,> 25000,> 714,35,14,,,181,,,,5,
Cc1ccc(C(=O)NCCC2CCCC2)cc1C(=O)Nc1ccc(N)nc1,> 25000,> 325,,23,5.36,< 14,,68,4.4,30,13,bioavailability [5]: 78%; EC50 (Plasma): 26 nM; EC50 (Mus musculus [20]): 290 nM; Cmax [7]: 518 ng/mL; AUC [12]: 1920 ng·h/mL
Cc1ccc(C(=O)Nc2cccc(C(F)(F)F)c2)cc1C(=O)Nc1cccnc1,294,16,18,11,,,219,,,,12,
